We go through 54 molecules from patent publication US8889732B2, “Fused heterocyclic compounds and thrombopoietin receptor activators” (Nissan Chemical Industries, Ltd., priority 2009, dated 2014).

Structures are written as SMILES.

This test has as its target T1, human thrombopoietin receptor (c-mpl) (Homo sapiens, UniProt P40238).
T1 construct: expressed in transfected cells
T1 sequence (P40238 26-635): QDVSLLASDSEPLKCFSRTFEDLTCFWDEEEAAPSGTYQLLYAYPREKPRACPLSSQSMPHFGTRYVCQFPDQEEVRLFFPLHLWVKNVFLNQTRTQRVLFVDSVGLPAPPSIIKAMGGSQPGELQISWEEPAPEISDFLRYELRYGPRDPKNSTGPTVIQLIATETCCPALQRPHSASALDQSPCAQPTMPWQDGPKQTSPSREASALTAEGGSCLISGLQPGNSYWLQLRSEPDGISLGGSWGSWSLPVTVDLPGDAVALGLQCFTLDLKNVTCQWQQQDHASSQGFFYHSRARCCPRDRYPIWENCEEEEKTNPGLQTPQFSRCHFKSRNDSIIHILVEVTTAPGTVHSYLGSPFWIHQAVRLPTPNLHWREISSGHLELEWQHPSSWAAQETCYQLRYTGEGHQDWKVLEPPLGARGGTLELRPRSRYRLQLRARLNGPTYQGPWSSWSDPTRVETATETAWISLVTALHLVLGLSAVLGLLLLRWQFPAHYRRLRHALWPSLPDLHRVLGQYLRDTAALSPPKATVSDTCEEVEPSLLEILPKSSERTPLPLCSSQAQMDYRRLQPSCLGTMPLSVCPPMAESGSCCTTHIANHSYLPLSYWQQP
The experiment in a line: Stimulation of proliferation of thrombopoietin-dependent cell line UT7/EPO-mpl (WST-8). Conditions: concentration yielding growth rate corresponding to 50% of growth of UT-7/EPO-mpl in the presence of 10 ng/mL TPO; 4 days incubation, WST-8. The test is classed as cell-based. The procedure:
The responses of thrombopoietin receptor to the compounds of Synthetic Examples of the present invention were assayed using a human leukemic cell line, UT7/EPO-mpl.
UT7/EPO-mpl is a stable transformed cell line obtained by introducing into human leukemic cell line UT7/EPO a vector that induces expression of human thrombopoietin receptor (c-mpl) under control of cytomegalovirus immediate-early promoter by the method of Takatoku et al. (J. Biol. Chem., 272:7259-7263 (1997)). […] These two cell lines were subcultured in IMDM (Invitrogen) containing 10% fetal bovine serum (Thermo Electron or BioWest) using a CO2 incubator (5% CO2, 37° C.).
The subcultured cells described above were washed twice with PBS and suspended in IMDM containing 10% fetal bovine serum at a cell density of 6×10^4 cells/ml. The cell suspension was transferred to a 96-well tissue culture plate (CORNING) in 100-μl aliquots. Then either thrombopoietin (Pepro Tech EC) or the compound of Synthetic Examples dissolved in dimethyl sulfoxide were diluted 83-fold with IMDM containing 10% fetal bovine serum and added to the aforementioned cell suspension in 20-μl aliquots. The cell suspension was incubated in a CO2 incubator (5% CO2, 37° C.) for 4 days. Cell proliferation was assayed using WST-8 reagent (Kishida Chemical Co., Ltd.) according to instructions by the manufacturer. A 10-μl aliquot of 5 mM WST-8 reagent solution was added to each well of the tissue culture plate, and the plate was incubated at 37° C. for 4 hours. The formazan pigment generated was detected by measuring the absorbance at 450 nm with a 96-well microplate reader (Nihon Molecular Devices, Spectramax 190).
With `C/C(=N\NC(=O)c1ccc(C(=O)NCc2ccncc2)s1)c1nn(C)c(-c2ccc3c(c2)CCC3)c1O` [compound 1], the EC50 (in general, the concentration needed to bring the measured effect to its halfway point) is 1.55 nM.
Under `C/C(=N\NC(=O)c1ccc(C(=O)NCCc2ccncc2)s1)c1nn(C)c(-c2ccc3c(c2)CCC3)c1O` [compound 2] stands 3.4 nM; under `CCN(CC)C(=O)c1ccc(C(=O)N/N=C(\C)c2nn(C)c(-c3ccc4c(c3)CCC4)c2O)s1` [compound 3], 70.3 nM; under `C/C(=N\NC(=O)c1ccc(C(=O)N2CCCC2)s1)c1nn(C)c(-c2ccc3c(c2)CCC3)c1O` [compound 4], 11.1 nM.
As to `COC(=O)c1ccc(C(=O)N/N=C(\C)c2nn(C)c(-c3ccc4c(c3)CCC4)c2O)cc1[N+](=O)[O-]` [compound 5], the EC50 is 11.7 nM.
Regarding `COC(=O)c1ccc(C(=O)N/N=C(\C)c2nn(C)c(-c3ccc4c(c3)CCC4)c2O)s1` [compound 6], the EC50 was 18.9 nM.
For `COC(=O)c1ccc(C(=O)N/N=C(\C)c2nn(C)c(-c3ccc4c(c3)CCC4)c2O)cc1` [compound 7], the EC50 was 43 nM.
As for `COC(=O)C1CCN(C(=S)N/N=C(\C)c2nn(C)c(-c3ccc4c(c3)CCC4)c2O)CC1` [compound 8], the EC50 is 99.4 nM.
Under `C/C(=N\NC(=S)N1CCC(C(=O)O)CC1)c1nn(C)c(-c2ccc3c(c2)CCC3)c1O` [compound 9] stands 76.5 nM; under `C/C(=N\NC(=O)c1ccc(C(=O)O)s1)c1nn(C)c(-c2ccc3c(c2)CCC3)c1O` [compound 10], 45.5 nM; under `C/C(=N\NC(=O)c1ccc(C(=O)O)cc1)c1nn(C)c(-c2ccc3c(c2)CCC3)c1O` [compound 11], 57.6 nM.
As for `C/C(=N\NC(=O)c1ccc(C(=O)O)c([N+](=O)[O-])c1)c1nn(C)c(-c2ccc3c(c2)CCC3)c1O` [compound 12], the EC50 was 1.73 nM.
For `C/C(=N\NC(=S)Nc1ccc(C(=O)O)cc1)c1nn(C)c(-c2ccc3c(c2)CCC3)c1O` [compound 13] the value was 59.2 nM.
Under `C/C(=N\NC(=S)Nc1cccc(C(=O)O)c1)c1nn(C)c(-c2ccc3c(c2)CCC3)c1O` [compound 14] stands 22.7 nM; under `C/C(=N\NC(=S)Nc1ccc(C(=O)O)c(Cl)c1)c1nn(C)c(-c2ccc3c(c2)CCC3)c1O` [compound 15], 12.8 nM.
For `C/C(=N\NC(=O)c1ccc(C(=O)NCCc2ccncc2)s1)c1csc(-c2ccc3c(c2)CCCC3)c1O` [compound 16] the value was 0.496 nM.
Take `C/C(=N\NC(=S)Nc1cccc(C(=O)O)c1)c1csc(-c2ccc3c(c2)CCCC3)c1O` [compound 17]: the EC50 is 49.4 nM.
Under `C/C(=N\NC(=O)c1ccc(C(=O)NCc2ccncc2)s1)c1csc(-c2ccc3c(c2)CCO3)c1O` [compound 18] stands 5.4 nM; under `C/C(=N\NC(=O)c1ccc(C(=O)NCCc2ccncc2)s1)c1csc(-c2ccc3c(c2)CCO3)c1O` [compound 19], 30 nM; under `C/C(=N\NC(=O)c1ccc(C(=O)N2CCCC2)s1)c1csc(-c2ccc3c(c2)CCO3)c1O` [compound 21], 99.7 nM.
Under `C/C(=N\NC(=O)c1ccc(C(=O)NCc2ccncc2)s1)c1csc(-c2ccc3c(c2)CCC3)c1O` [compound 25] stands 0.523 nM.
Under `C/C(=N\NC(=O)c1ccc(C(=O)NCCc2ccncc2)s1)c1csc(-c2ccc3c(c2)CCC3)c1O` [compound 26] stands 0.867 nM.
Take `CCN(CC)C(=O)c1ccc(C(=O)N/N=C(\C)c2csc(-c3ccc4c(c3)CCC4)c2O)s1` [compound 27]: the EC50 is 6.44 nM.
Consider `C/C(=N\NC(=O)c1ccc(C(=O)N2CCCC2)s1)c1csc(-c2ccc3c(c2)CCC3)c1O` [compound 28], for which the EC50 was 5.84 nM.
With `COC(=O)c1ccc(C(=O)N/N=C(\C)c2csc(-c3ccc4c(c3)CCC4)c2O)cc1[N+](=O)[O-]` [compound 29], the EC50 was 12.9 nM.
For `COC(=O)c1ccc(C(=O)N/N=C(\C)c2csc(-c3ccc4c(c3)CCC4)c2O)s1` [compound 30] the value was 18.8 nM.
Take `COC(=O)c1ccc(C(=O)N/N=C(\C)c2csc(-c3ccc4c(c3)CCC4)c2O)cc1` [compound 31]: the EC50 was 52.9 nM.
For `C/C(=N\NC(=O)c1ccc(C(=O)NCc2ccncc2)s1)c1csc(-c2ccc3c(c2)CCCC3)c1O` [compound 32] the value was 0.452 nM; for `CCN(CC)C(=O)c1ccc(C(=O)N/N=C(\C)c2csc(-c3ccc4c(c3)CCCC4)c2O)s1` [compound 33], 4.84 nM; for `C/C(=N\NC(=O)c1ccc(C(=O)N2CCCC2)s1)c1csc(-c2ccc3c(c2)CCCC3)c1O` [compound 34], 2.43 nM.
Take `COC(=O)c1ccc(C(=O)N/N=C(\C)c2csc(-c3ccc4c(c3)CCCC4)c2O)s1` [compound 36]: the EC50 is 9.46 nM.
On to `COC(=O)c1ccc(C(=O)N/N=C(\C)c2csc(-c3ccc4c(c3)CCCC4)c2O)cc1` [compound 37], for which the EC50 is 40.1 nM.
As for `C/C(=N\NC(=S)Nc1ccc(C(=O)O)c(Cl)c1)c1csc(-c2ccc3c(c2)CCO3)c1O` [compound 39], the EC50 is 43 nM.
For `COC(=O)C1CCN(C(=S)N/N=C(\C)c2csc(-c3ccc4c(c3)CCC4)c2O)CC1` [compound 40], the concentration giving a half-maximal response (EC50) is 52.4 nM.
Under `C/C(=N\NC(=S)Nc1ccc(C(=O)O)c(Cl)c1)c1csc(-c2ccc3c(c2)CCC3)c1O` [compound 41] stands 6.79 nM; under `COC(=O)C1CCN(C(=S)N/N=C(\C)c2csc(-c3ccc4c(c3)CCCC4)c2O)CC1` [compound 42], 48.8 nM; under `C/C(=N\NC(=S)Nc1ccc(C(=O)O)c(Cl)c1)c1csc(-c2ccc3c(c2)CCCC3)c1O` [compound 43], 4.8 nM.
Under `C/C(=N\NC(=O)c1ccc(C(=O)O)cc1)c1csc(-c2ccc3c(c2)CCO3)c1O` [compound 46] stands 94.7 nM.
Regarding `C/C(=N\NC(=O)c1ccc(C(=O)O)c([N+](=O)[O-])c1)c1csc(-c2ccc3c(c2)CCO3)c1O` [compound 47], the half-maximal effective concentration (EC50) is 55.6 nM.
Under `C/C(=N\NC(=S)N1CCC(C(=O)O)CC1)c1csc(-c2ccc3c(c2)CCC3)c1O` [compound 48] stands 4.06 nM; under `C/C(=N\NC(=O)c1ccc(C(=O)O)s1)c1csc(-c2ccc3c(c2)CCC3)c1O` [compound 49], 3.28 nM; under `C/C(=N\NC(=O)c1ccc(C(=O)O)cc1)c1csc(-c2ccc3c(c2)CCC3)c1O` [compound 50], 1.76 nM.
For `C/C(=N\NC(=O)c1ccc(C(=O)O)c([N+](=O)[O-])c1)c1csc(-c2ccc3c(c2)CCC3)c1O` [compound 51] the value was 0.451 nM; for `C/C(=N\NC(=S)N1CCC(C(=O)O)CC1)c1csc(-c2ccc3c(c2)CCCC3)c1O` [compound 52], 3.71 nM; for `C/C(=N\NC(=O)c1ccc(C(=O)O)s1)c1csc(-c2ccc3c(c2)CCCC3)c1O` [compound 53], 1.25 nM.
With `C/C(=N\NC(=O)c1ccc(C(=O)O)cc1)c1csc(-c2ccc3c(c2)CCCC3)c1O` [compound 54], the EC50 was 2.99 nM.
For `C/C(=N\NC(=O)c1ccc(C(=O)O)c([N+](=O)[O-])c1)c1csc(-c2ccc3c(c2)CCCC3)c1O` [compound 55], the EC50 is 0.396 nM.
Under `C/C(=N\NC(=S)Nc1ccc(C(=O)O)cc1)c1csc(-c2ccc3c(c2)CCO3)c1O` [compound 56] stands 57.3 nM; under `C/C(=N\NC(=S)Nc1ccc(C(=O)O)cc1)c1csc(-c2ccc3c(c2)CCC3)c1O` [compound 58], 5.76 nM.
Under `C/C(=N\NC(=S)Nc1cccc(C(=O)O)c1)c1csc(-c2ccc3c(c2)CCC3)c1O` [compound 59] stands 53.1 nM; under `C/C(=N\NC(=S)Nc1ccc(C(=O)O)cc1)c1csc(-c2ccc3c(c2)CCCC3)c1O` [compound 60], 5.8 nM.
Consider `C/C(=N\NC(=S)Nc1cccc(-c2nnn[nH]2)c1)c1csc(-c2ccc3c(c2)CCCC3)c1O` [compound 61], for which the EC50 is 4.08 nM.
In the case of `C/C(=N\NC(=S)Nc1ccc(-c2nnn[nH]2)cc1)c1csc(-c2ccc3c(c2)CCCC3)c1O` [compound 62], the EC50 is 4.08 nM.
In the case of `C/C(=N\NC(=S)Nc1cccc(-c2nnn[nH]2)c1)c1csc(-c2ccc3c(c2)CCC3)c1O` [compound 63], the EC50 was 3.99 nM.
